# Where “and” joins values, the source holds several entries; their conditions need not be identical. Identical values can stand only once. *1 amine or outer side, *2 acyl side, *3 side chain or, on linkers, in order; H or OH if unused. Where a SMILES comes first, the peptide text is derived from it. Bridges are numbered along the chain shown (N, C = ends). Roman numbers before positions name the chains, in order. [ ]: non-standard residue; d: D form. The star is where a group is joined. ξ: configuration not given here. X2 = CN1/C(=C/C=C/C=C/C2=[N+](CCCCCC(=O)*)c3ccc4ccccc4c3C2(C)C)C(C)(C)c2c1ccc1ccccc21; Hexanoyl(6-succinimido-3yl) = O=C1CC([*:1])C(=O)N1CCCCCC(=O)[*:2]; X3 = CC[C@H](C)[C@@H]([C@H](CC(=O)[*:2])OC)N(C)[*:1]; Dolaproine = CO[C@@H]([C@@H]1CCCN1)[C@@H](C)C(=O)O; PABC = O=C(OCc1ccc(N[*:1])cc1)[*:2]; ξγGlu = O=C(O)C(CCC(=O)[*:2])N[*:1]; X4 = C[C@@H](N*)[C@@H](O)c1ccccc1; X1 = O=C(C1CCC(CN[*:1])CC1)[*:2]; Cit = NC(=O)NCCC[C@H](N)C(=O)O; NMeV = CN[C@H](C(=O)O)C(C)C; ξE = NC(CCC(=O)O)C(=O)O; CO = O=C([*:1])[*:2]; ξK = NCCCCC(N)C(=O)O; Ahx = NCCCCCC(=O)O; ξC = NC(CS)C(=O)O
# Tests used:
# [1] = biological target: T1, PSMA (Homo sapiens, UniProt Q04609); assay: Competitive binding assay against 3H-ZJ24 on PC3pip cells; settings: 10 nM 3H-ZJ24, read-out: IC50, competition binding to PSMA
# T1 construct: expressed in transfected cells; host or cells: PC3pip cells (retrovirally transfected, from Dr. Michel Sadelain, MSKCC)
# Method: The assay was carried as previously reported by incubation PC3pip cells with different concentrations of drug conjugates in the presence of 10 nM N—[N—[(S)-1,3-dicarboxypropyl]carbamoyl]-S-[^3H]-methyl-L-cysteine (^3H-ZJ24) (GE Healthcare Life Sciences, Pittsburgh, Pa.). Radioactivity of cell pellet was counted by scintillation counter. The concentration required to inhibit 50% of binding was determined (IC50) by GraphPad Prism 3.0.
# [2] = tested on: α-tubulin; assay: Immunofluorescence analysis of alpha-tubulin in PC3pip and PC3flu cells; assay type: cell-based; settings: 5 nM, 24 hours
# Method: Cells on coverslips at about 70% confluency were incubated with 5 nM of MMAE, PSMA-1-VcMMAE-Cy5.5 or PSMA-1-McMMAE-Cy5.5 for 24 hours. Cells were washed and fixed with 4% paraformaldehyde for 10 minutes, permeabilized with 0.1% Triton™ X-100 for 10 minutes, and blocked with 1% BSA for 1 hour at room temperature. Alpha-tubulin (B5-1-2) Alexa Fluor 488 Mouse Monoclonal Antibody (Invitrogen) was then added at 2 μg/mL in 0.1% BSA and incubated for 3 hours at room temperature. Cells were counterstained with DAPI, mounted with Fluor-Mount aqueous mounting solution, and observed under Leica DM4000B fluorescence microscopy at 40×.
# [3] = Maximum tolerated dose (single i.v. dose); assay type: in vivo, mice; settings: male, mouse, in vivo, iv; single dose i.v., tumor-free athymic nude mice, 14 days
# Description: Mice were monitored daily for 14 days.
# [4] = tested on: heterotopic C4-2 tumors; assay: Heterotopic C4-2 tumor study; design: species or system mice; settings: mouse, in vivo
# Description: To show versatility of the antitumor activity of PSMA-1-VcMMAE-Cy5.5, we tested it in mice bearing heterotopic C4-2 tumors, which are androgen-independent prostate cancer cells endogenously expressing PSMA.
# [5] = Stability of conjugates incubated in PBS without enzyme (HPLC); assay type: physicochemical; settings: no enzyme
# Method: (§1) PSMA-1-VcMMAE-Cy5.5 or PSMA-1-McMMAE-Cy5.5 was added to 500 μL of activated human liver cathepsin B (Anthens Research and Technology) solution (46) to a final concentration of 2 μM and incubated at 37° C. At different time intervals, 40 μL of the solution was taken out into tubes loaded with 1 μL of 1 mM E64 protease inhibitor. The mixture was vortexed and then stored at −80° C. for future HPLC analysis to assess degradation of PSMA-1-VcMMAE-Cy5.5 or PSMA-1-McMMAE-Cy5.5. Studies were performed in triplicate.
# To investigate if PSMA-targeted drug conjugates were cleavable by cathepsin B, the two conjugates were incubated with or without the enzyme and chromatographed by HPLC. When the conjugates were incubated with PBS, both PSMA-1-VcMMAE-Cy5.5 and PSMA-1-McMMAE-Cy5.5 were stable (FIG. 11D).
# [6] = tested on: PC3pip cells; assay: In vitro cytotoxicity assay (CCK-8, 72 h), PSMA-positive cells; assay type: cell-based
# Method: Cells (1,000/well) were seeded in 96-well culture plates the day before treatment. Cells were incubated with various concentrations of drugs for 72 hours and cell viability evaluated by CCK-8 (Dojindo). The concentration required to reach 50% of cell proliferation was determined (IC50) by GraphPad Prism 3.0.
# [7] = tested on: PC3pip and PC3flu tumors; assay: In vivo NIR imaging of mice bearing PC3pip and PC3flu tumors; settings: 40 nmol/kg i.v.
# Method: Under guidelines of the animal care and use committee at Case Western Reserve University (IACUC #150033) 6 to 8-week old male Balb/cathymic nude mice were implanted subcutaneously with 1×10^6 of PC3flu and PC3pip on the left and right dorsum respectively. Mice received 40 nmol/kg of PSMA-1-VcMMAE-Cy5.5 or PSMA-1-McMMAE-Cy5.5 in PBS via tail vein injection when tumors reached 10 mm in diameter. Fluorescence imaging was performed using the Maestro In Vivo Imaging system (Perkin-Elmer). Multispectral images were unmixed into their component spectra (PSMA probes, autofluorescence, and background) to quantitate the average fluorescence intensity associated with the tumors using regions of interest (ROIs) around the tumors.
# [8] = tested on: heterotopic PC3pip tumors; assay: Heterotopic PC3pip tumor survival / antitumor study; assay type: in vivo
# Description: Male athymic nude mice were implanted subcutaneously with 1×10^6 of PC3pip cells under the right dorsum of the mice. When tumor size reached approximately 100 mm^3 (tumor volume=Length×width^2/2), mice received drugs through tail vein injection. […] Animals were weighed and tumor size measured every other day for 90 days. Cures were defined as no tumor present at end of the 90-day study. When tumors became too large or animals were moribund they were euthanized. Five mice were used in each group.
# [9] = tested on: metastatic PC3pip model; assay: Metastatic PC3pip survival study (intracardiac GFP-PC3pip); assay type: in vivo, mice; settings: 160 nmol/kg every 4 days, 5 doses
# Method: Male athymic nude mice were injected into the left ventricle of the heart with 1×10^5 GFP labeled PC3pip cells to generate bone metastasis. One week later mice received 160 nmol/kg PSMA-1-VcMMAE-Cy5.5 or PBS every 4 days with a total of 5 doses and the progression of disease was monitored by GFP imaging. Five mice were used in each group.
# [10] = tested on: orthotopic PC3pip tumors; assay: Orthotopic PC3pip tumor survival study; assay type: in vivo, mice
# Method: Surgical orthotopic tumor implantation was performed as previously reported. Tumor growth/size was monitored using Siemens Acuson […] ultrasound scanner. When the tumors were at the appropriate size (5 mm as measured by ultrasound, approximately 2 weeks) animals were given PSMA-1-VcMMAE, PSMA-1-VcMMAE-Cy5.5, or PBS every four days with a total of 5 doses. Tumors were monitored every other day by ultrasound. Each group had five mice.
# [11] = biological target: T2, human liver cathepsin B (Homo sapiens, UniProt P07858); assay: Enzymatic cleavage by cathepsin B (HPLC); assay type: in vitro ADME; settings: 2 μM conjugate, 37° C.
# T2 construct: purchased Anthens Research and Technology; host or cells: human liver (tissue-derived enzyme)
# Method: as §1
# [12] = biological target: T3, cathepsin B (Homo sapiens, UniProt P07858); assay: Enzymatic cleavage by cathepsin B (HPLC); assay type: in vitro ADME; settings: human, activated human liver cathepsin B solution; 2 μM conjugate, 37° C.; read-out: half-life in the presence of cathepsin B (converted)
# T3 construct: purchased Anthens Research and Technology; host or cells: human liver (tissue-derived enzyme)
# Method: as §1
# T1 sequence (Q04609 whole entry): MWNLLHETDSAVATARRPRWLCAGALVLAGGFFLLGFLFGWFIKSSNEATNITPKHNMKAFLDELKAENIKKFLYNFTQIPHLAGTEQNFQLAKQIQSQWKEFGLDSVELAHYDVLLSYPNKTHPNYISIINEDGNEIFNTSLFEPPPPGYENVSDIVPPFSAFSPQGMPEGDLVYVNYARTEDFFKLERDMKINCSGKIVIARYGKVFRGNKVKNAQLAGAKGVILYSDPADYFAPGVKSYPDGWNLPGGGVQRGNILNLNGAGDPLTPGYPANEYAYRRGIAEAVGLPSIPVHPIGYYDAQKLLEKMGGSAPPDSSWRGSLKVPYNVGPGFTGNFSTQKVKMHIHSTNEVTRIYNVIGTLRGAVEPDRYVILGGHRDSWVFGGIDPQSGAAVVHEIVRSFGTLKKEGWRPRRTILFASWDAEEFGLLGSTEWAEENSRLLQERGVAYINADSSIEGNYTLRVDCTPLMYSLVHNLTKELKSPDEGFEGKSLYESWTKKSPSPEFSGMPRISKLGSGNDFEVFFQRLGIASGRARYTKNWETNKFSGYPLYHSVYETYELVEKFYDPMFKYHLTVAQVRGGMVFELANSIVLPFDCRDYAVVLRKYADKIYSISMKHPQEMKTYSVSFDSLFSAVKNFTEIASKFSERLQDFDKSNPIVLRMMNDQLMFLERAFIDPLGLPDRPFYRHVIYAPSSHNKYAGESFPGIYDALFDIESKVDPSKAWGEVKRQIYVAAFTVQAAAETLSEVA
compound,measurement,setting,value
"CSC[C@H](NC(=O)N[C@@H](CCC(=O)O)C(=O)O)C(=O)O [ZJ24, reference compound]",IC50,[1],11700 pM
CC[C@H](C)[C@@H]([C@H](CC(=O)N1CCC[C@H]1[C@H](OC)[C@@H](C)C(=O)N[C@H](C)[C@@H](O)c1ccccc1)OC)N(C)C(=O)[C@@H](NC(=O)[C@H](C(C)C)N(C)C(=O)OCc1ccc(NC(=O)[C@H](CCCNC(N)=O)NC(=O)[C@@H](NC(=O)CCCCCN2C(=O)CC(SCC(NC(=O)C(CCC(=O)O)NC(=O)C(CCC(=O)O)NC(=O)C(CCC(=O)O)NC(=O)CCCCCNC(=O)C3CCC(CNC(=O)CCC(NC(=O)NC(CCC(=O)O)C(=O)O)C(=O)O)CC3)C(=O)NCCCCCC(=O)NC(CCCCNC(=O)CCCCC[N+]3=C(/C=C/C=C/C=C4/N(C)c5ccc6ccccc6c5C4(C)C)C(C)(C)c4c3ccc3ccccc43)C(N)=O)C2=O)C(C)C)cc1)C(C)C (stereo partly drawn) [PSMA-1-VcMMAE-Cy5.5] (I: {ξE-CO-ξγGlu}-[X1][Ahx][ξE][ξE][ξE][ξC][Ahx][ξK](X2)-NH2 / II: V[Cit][PABC][NMeV]V[X3][Dolaproine]-X4; linker I:6-II:N via Hexanoyl(6-succinimido-3yl)),disruption of α-tubulin,[2],selective disruption of tubulin in PC3pip cells but not in PC3flu cells
same,MTD at 14 days,[3],0.48 µmol/kg
same,cure rate,[4],40%
same,weight loss,[4],no weight loss
same,stability when incubated with PBS,[5],stable
same,potency to kill PC3pip cells in the presence of PSMA-1 ligand,[6]; 10 μM of PSMA-1,reduced to the same potency to kill PC3flu cells
same,IC50,"[6]; 72 hours, CCK-8",840 pM and 750 pM
same,effect of protease inhibitor E64 on cell killing potency,[6]; co-incubation with 50 μM E64,reduced the potency
same,time of peak uptake in PC3pip tumors post-injection,[7],24 h
same,cure rate (no tumors at end of study),"[8]; 160 nmol/kg every 4 days, 5 doses, 90 days",60%
same,tumor growth,"[8]; 160 nmol/kg i.v. every 4 days, 5 doses",effectively inhibited tumor growth as early as day 6
same,tumor growth when given every 7 days,"[8]; every 7 days, model not stated",greatly inhibited tumor growth
same,lowest dose effectively inhibiting tumor growth,"[8]; mouse, in vivo",80 nmol/kg
same,animal survival,[9],all 5 treated mice survived the 90-day experimental period
same,body weight loss,[9],no significant body weight loss
same,response (no GFP signal),[9],100%
same,cure at day 90,"[10]; every four days, 5 doses",40%
same,body weight loss,"[10]; mouse, in vivo",No significant body weight loss
same,cleavage in the presence of cathepsin B,[11],degraded rapidly
same,half-life at 2 μM,[12],19.8 min
